target: T1, B-Raf kinase (Homo sapiens, UniProt P15056); experiment: Biochemical assay for B-Raf.1 (coupled pyruvate kinase/lactate dehydrogenase); conditions: read-out: BRAF.1 IC50
T1 construct: GST (N); purchased Sigma
Outline: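 Reaction rates over the 4–5 h window of a continuous 6 h, 30 °C read were converted to percent inhibition and fitted for IC50. B-Raf (0.13 nM) phosphorylated 30.1 nM MEK with 1 mM ATP; ADP coupled via PK/LDH to NADH loss at 340 nm, 1% DMSO final.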

T1 sequence (P15056 416-766): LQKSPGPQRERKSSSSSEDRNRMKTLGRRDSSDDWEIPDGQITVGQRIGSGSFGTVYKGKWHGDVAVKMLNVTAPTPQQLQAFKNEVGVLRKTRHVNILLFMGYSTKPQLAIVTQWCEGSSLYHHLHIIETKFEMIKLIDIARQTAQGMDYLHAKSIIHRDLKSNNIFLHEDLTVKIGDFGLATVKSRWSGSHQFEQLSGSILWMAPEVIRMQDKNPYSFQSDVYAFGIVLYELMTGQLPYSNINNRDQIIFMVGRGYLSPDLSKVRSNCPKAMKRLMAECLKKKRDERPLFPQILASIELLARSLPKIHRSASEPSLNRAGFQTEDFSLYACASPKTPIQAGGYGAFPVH

Structure (SMILES) | IC50 [µM]
Cc1ncc(NC(=O)NCCC(C)(C)C)cc1-c1cc(-c2ccnc(NC(=O)C3CC3)c2)cnn1 [Example 120] | ≤ 0.1
COC(C)(C)CCNC(=O)Nc1cnc(C)c(-c2cc(-c3ccnc(NC(=O)C4CC4)c3)cnn2)c1 [Example 121] | 0.1 to 0.5
COC(=O)Nc1nccc(-c2cc(OCCO)cc(-c3cc(NC(=O)NCCC4(C)CC4)c(F)cc3C)c2)n1 [Example 122] | ≤ 0.1
CNC(=O)c1cc(-c2cnnc(-c3cc(NC(=O)NCCC(C)(C)OC)c(F)cc3C)c2)ccn1 [Example 123] | > 1
CCC(C)CCNC(=O)Nc1cnc(C)c(-c2ccnc(-c3ccnc(NC(=O)C4CC4)c3)c2)c1 (stereo not drawn) [Example 124] | ≤ 0.1
COC(=O)Nc1cc(-c2cc(-c3cc(NC(=O)NCCN4CCC4)c(F)cc3C)cc(OCCO)n2)ccn1 [Example 125] | > 1
Cc1ncc(NC(=O)NC2CC(C)(C)C2)cc1-c1cc(OCCO)nc(-c2ccnc(NC(=O)C3CC3)c2)c1 [Example 126] | ≤ 0.1
Cc1cc(F)c(NC(=O)NCCC(C)(C)F)cc1-c1cccc(-c2cc(NC(=O)C3CC3)ncn2)c1 [Example 127] | ≤ 0.1
Cc1cc(F)c(NC(=O)NCCC(C)(C)F)cc1-c1ccnc(-c2ccnc(NC(=O)C3CC3)c2)n1 [Example 128] | ≤ 0.1
COC(=O)Nc1cc(-c2nccc(-c3cc(NC(=O)NCCC(C)(C)OC)c(F)cc3C)n2)ccn1 [Example 129] | ≤ 0.1
Cc1ncc(NC(=O)NCCC(C)(C)F)cc1-c1nccc(-c2ccnc(NC(=O)C3CC3)c2)n1 [Example 130] | 0.1 to 0.5
Cc1cc(F)c(NC(=O)NCCC(C)(C)C)cc1-c1cc(-c2ccnc(NC(=O)C3CC3)c2)cnn1 [Example 131] | ≤ 0.1
CNC(=O)c1cc(-c2cnnc(-c3cc(NC(=O)NCCC(C)(C)F)c(F)cc3C)c2)ccn1 [Example 132] | 0.1 to 0.5
Cc1ncc(NC(=O)NCCC2(C)CC2)cc1-c1cc(OCCO)nc(-c2ccnc(NC(=O)C3CC3)c2)n1 [Example 133] | ≤ 0.1
Cc1cc(F)c(NC(=O)NCCC2(C)CC2)cc1-c1ccnc(-c2ccnc(NC(=O)C3CC3)c2)c1 [Example 134] | ≤ 0.1

target: T2, B-Raf (V600E) kinase (Homo sapiens, UniProt P15056, V600E); experiment: Biochemical assay for B-Raf (V600E).1 (coupled pyruvate kinase/lactate dehydrogenase); conditions: read-out: BRAF V600E.1 IC50
T2 construct: B-Raf (V600E) residues 416-766 with a; GST (N); purchased SignalChem
T2 sequence (P15056 416-766 V600E): as the sequence (P15056 416-766) above, with V185E counted along it
Outline: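 IC50 came from four-parameter sigmoidal fits of percent inhibition, using reaction rates over 3-4 h. Continuous A340 reading (6 h, 30 °C) of a pyruvate kinase/lactate dehydrogenase-coupled reaction: B-Raf V600E 0.03 nM, MEK 30.1 nM, ATP 1 mM, Tris pH 7.5, 1% DMSO.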

Structure (SMILES) | IC50 [µM]
Cc1ncc(NC(=O)NCCC(C)(C)C)cc1-c1cc(-c2ccnc(NC(=O)C3CC3)c2)cnn1 [Example 120] | ≤ 0.1
COC(C)(C)CCNC(=O)Nc1cnc(C)c(-c2cc(-c3ccnc(NC(=O)C4CC4)c3)cnn2)c1 [Example 121] | ≤ 0.1
COC(=O)Nc1nccc(-c2cc(OCCO)cc(-c3cc(NC(=O)NCCC4(C)CC4)c(F)cc3C)c2)n1 [Example 122] | ≤ 0.1
CNC(=O)c1cc(-c2cnnc(-c3cc(NC(=O)NCCC(C)(C)OC)c(F)cc3C)c2)ccn1 [Example 123] | ≤ 0.1
CCC(C)CCNC(=O)Nc1cnc(C)c(-c2ccnc(-c3ccnc(NC(=O)C4CC4)c3)c2)c1 (stereo not drawn) [Example 124] | ≤ 0.1
COC(=O)Nc1cc(-c2cc(-c3cc(NC(=O)NCCN4CCC4)c(F)cc3C)cc(OCCO)n2)ccn1 [Example 125] | 0.1 to 0.5
Cc1ncc(NC(=O)NC2CC(C)(C)C2)cc1-c1cc(OCCO)nc(-c2ccnc(NC(=O)C3CC3)c2)c1 [Example 126] | ≤ 0.1
Cc1cc(F)c(NC(=O)NCCC(C)(C)F)cc1-c1cccc(-c2cc(NC(=O)C3CC3)ncn2)c1 [Example 127] | ≤ 0.1
Cc1cc(F)c(NC(=O)NCCC(C)(C)F)cc1-c1ccnc(-c2ccnc(NC(=O)C3CC3)c2)n1 [Example 128] | ≤ 0.1
COC(=O)Nc1cc(-c2nccc(-c3cc(NC(=O)NCCC(C)(C)OC)c(F)cc3C)n2)ccn1 [Example 129] | ≤ 0.1
Cc1ncc(NC(=O)NCCC(C)(C)F)cc1-c1nccc(-c2ccnc(NC(=O)C3CC3)c2)n1 [Example 130] | ≤ 0.1
Cc1cc(F)c(NC(=O)NCCC(C)(C)C)cc1-c1cc(-c2ccnc(NC(=O)C3CC3)c2)cnn1 [Example 131] | ≤ 0.1
CNC(=O)c1cc(-c2cnnc(-c3cc(NC(=O)NCCC(C)(C)F)c(F)cc3C)c2)ccn1 [Example 132] | ≤ 0.1
Cc1ncc(NC(=O)NCCC2(C)CC2)cc1-c1cc(OCCO)nc(-c2ccnc(NC(=O)C3CC3)c2)n1 [Example 133] | ≤ 0.1
Cc1cc(F)c(NC(=O)NCCC2(C)CC2)cc1-c1ccnc(-c2ccnc(NC(=O)C3CC3)c2)c1 [Example 134] | ≤ 0.1

system: A375 cells; experiment: A375 cell proliferation assay (1), resazurin, 96-well; assay type: cell-based; conditions: Homo sapiens, A-375, inhibition of cell proliferation
Outline: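 Viability was read by resazurin fluorescence at 540 nm excitation and 600 nm emission, using a 440 μM solution added for 5–6 h at the end of culture. IC50 came from the curve fit.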

Structure (SMILES) | IC50 [µM]
Cc1ncc(NC(=O)NCCC(C)(C)C)cc1-c1cc(-c2ccnc(NC(=O)C3CC3)c2)cnn1 [Example 120] | 1 to 10
COC(C)(C)CCNC(=O)Nc1cnc(C)c(-c2cc(-c3ccnc(NC(=O)C4CC4)c3)cnn2)c1 [Example 121] | 1 to 10
COC(=O)Nc1nccc(-c2cc(OCCO)cc(-c3cc(NC(=O)NCCC4(C)CC4)c(F)cc3C)c2)n1 [Example 122] | 0.5 to 1
CNC(=O)c1cc(-c2cnnc(-c3cc(NC(=O)NCCC(C)(C)OC)c(F)cc3C)c2)ccn1 [Example 123] | 1 to 10
CCC(C)CCNC(=O)Nc1cnc(C)c(-c2ccnc(-c3ccnc(NC(=O)C4CC4)c3)c2)c1 (stereo not drawn) [Example 124] | 1 to 10
COC(=O)Nc1cc(-c2cc(-c3cc(NC(=O)NCCN4CCC4)c(F)cc3C)cc(OCCO)n2)ccn1 [Example 125] | 1 to 10
Cc1ncc(NC(=O)NC2CC(C)(C)C2)cc1-c1cc(OCCO)nc(-c2ccnc(NC(=O)C3CC3)c2)c1 [Example 126] | 0.1 to 0.5
Cc1cc(F)c(NC(=O)NCCC(C)(C)F)cc1-c1cccc(-c2cc(NC(=O)C3CC3)ncn2)c1 [Example 127] | 1 to 10
Cc1cc(F)c(NC(=O)NCCC(C)(C)F)cc1-c1ccnc(-c2ccnc(NC(=O)C3CC3)c2)n1 [Example 128] | 1 to 10
COC(=O)Nc1cc(-c2nccc(-c3cc(NC(=O)NCCC(C)(C)OC)c(F)cc3C)n2)ccn1 [Example 129] | 1 to 10
Cc1ncc(NC(=O)NCCC(C)(C)F)cc1-c1nccc(-c2ccnc(NC(=O)C3CC3)c2)n1 [Example 130] | 1 to 10
Cc1cc(F)c(NC(=O)NCCC(C)(C)C)cc1-c1cc(-c2ccnc(NC(=O)C3CC3)c2)cnn1 [Example 131] | ≤ 0.1
CNC(=O)c1cc(-c2cnnc(-c3cc(NC(=O)NCCC(C)(C)F)c(F)cc3C)c2)ccn1 [Example 132] | 1 to 10
Cc1ncc(NC(=O)NCCC2(C)CC2)cc1-c1cc(OCCO)nc(-c2ccnc(NC(=O)C3CC3)c2)n1 [Example 133] | 0.5 to 1
Cc1cc(F)c(NC(=O)NCCC2(C)CC2)cc1-c1ccnc(-c2ccnc(NC(=O)C3CC3)c2)c1 [Example 134] | 1 to 10

system: H2405 cells; experiment: H2405 cell proliferation assay (1), resazurin, 96-well; assay type: cell-based; conditions: Homo sapiens, NCI-H2405, inhibition of cell proliferation
Protocol: H2405 Cell Proliferation Assay (1)
H2405 cells (catalog #CRL-5944) are obtained from the American Type Culture Collect (ATTC, Manassas, VA). Briefly, cells were grown in RPMI 1640 supplemented with 5% characterized fetal bovine serum (Invitrogen, Carlsbad, CA) and 1% Penicillin/Streptomycin/L-Glutamine at 37° C., 5% CO2, and 95% humidity. Cells are expanded until reaching 70-95% confluency at which point they are subcultured or harvested for assay use. A serial dilution of test compound is dispensed into a 96-well black clear bottom plate in triplicate. Three thousand cells are added per well in 200 μL complete growth medium in the 96-well plate. Plates are incubated for 67-72 hours at 37° C., 5% CO2, and 95% humidity. At the end of the incubation, 40 μL of a 440 μM solution of resazurin (Sigma, St. Louis, MO) in PBS is added to each well of the plate and plates are incubated for an additional 5-6 hours at 37° C., 5% CO2, and 95% humidity. Plates are read on a Synergy2 or equivalent reader (Biotek, Winooski VT) using an excitation of 540 nm and an emission of 600 nm. Data is analyzed using Prism software (GraphPad, San Diego, CA) to calculate IC50 values.

Structure (SMILES) | IC50 [µM]
Cc1ncc(NC(=O)NCCC(C)(C)C)cc1-c1cc(-c2ccnc(NC(=O)C3CC3)c2)cnn1 [Example 120] | 1 to 10
COC(C)(C)CCNC(=O)Nc1cnc(C)c(-c2cc(-c3ccnc(NC(=O)C4CC4)c3)cnn2)c1 [Example 121] | 1 to 10
COC(=O)Nc1nccc(-c2cc(OCCO)cc(-c3cc(NC(=O)NCCC4(C)CC4)c(F)cc3C)c2)n1 [Example 122] | 0.5 to 1
CNC(=O)c1cc(-c2cnnc(-c3cc(NC(=O)NCCC(C)(C)OC)c(F)cc3C)c2)ccn1 [Example 123] | 1 to 10
CCC(C)CCNC(=O)Nc1cnc(C)c(-c2ccnc(-c3ccnc(NC(=O)C4CC4)c3)c2)c1 (stereo not drawn) [Example 124] | 1 to 10
COC(=O)Nc1cc(-c2cc(-c3cc(NC(=O)NCCN4CCC4)c(F)cc3C)cc(OCCO)n2)ccn1 [Example 125] | 1 to 10
Cc1ncc(NC(=O)NC2CC(C)(C)C2)cc1-c1cc(OCCO)nc(-c2ccnc(NC(=O)C3CC3)c2)c1 [Example 126] | 0.5 to 1
Cc1cc(F)c(NC(=O)NCCC(C)(C)F)cc1-c1cccc(-c2cc(NC(=O)C3CC3)ncn2)c1 [Example 127] | 1 to 10
Cc1cc(F)c(NC(=O)NCCC(C)(C)F)cc1-c1ccnc(-c2ccnc(NC(=O)C3CC3)c2)n1 [Example 128] | 1 to 10
COC(=O)Nc1cc(-c2nccc(-c3cc(NC(=O)NCCC(C)(C)OC)c(F)cc3C)n2)ccn1 [Example 129] | 1 to 10
Cc1ncc(NC(=O)NCCC(C)(C)F)cc1-c1nccc(-c2ccnc(NC(=O)C3CC3)c2)n1 [Example 130] | 1 to 10
Cc1cc(F)c(NC(=O)NCCC(C)(C)C)cc1-c1cc(-c2ccnc(NC(=O)C3CC3)c2)cnn1 [Example 131] | 0.1 to 0.5
CNC(=O)c1cc(-c2cnnc(-c3cc(NC(=O)NCCC(C)(C)F)c(F)cc3C)c2)ccn1 [Example 132] | 1 to 10
Cc1ncc(NC(=O)NCCC2(C)CC2)cc1-c1cc(OCCO)nc(-c2ccnc(NC(=O)C3CC3)c2)n1 [Example 133] | 0.5 to 1
Cc1cc(F)c(NC(=O)NCCC2(C)CC2)cc1-c1ccnc(-c2ccnc(NC(=O)C3CC3)c2)c1 [Example 134] | 0.5 to 1

Reference: patent US20230357179A1, “RAF KINASE INHIBITORS AND METHODS OF USE THEREOF” (Deciphera Pharmaceuticals, LLC, priority 2021, published 2023)
